Reference: patent publication US20180311161A1, “AMPHIPHILIC POLYMERS ENCAPSULATING THERAPEUTICALLY ACTIVE AGENTS” (TECHNION RESEARCH & DEVELOPMENT FOUNDATION LIMITED, priority 2015, published 2018)

Legend:
[1] = tested on: Caco2 cell line; test: In vitro cell compatibility, MTT method; type: cell-based; details: crosslinker, versus only-medium control (100% viability)
Procedure: Since these polymeric micelles are envisioned for the administration by mucosal routes, including the oral one, their cell compatibility before and after corona-crosslinking was evaluated in a Caco2 cell line (ATCC® HTB-37™) obtained from American Type Culture Collection (ATCC®, Manassas, Va., USA).
In exemplary embodiments, cells were cultured in Eagle's Minimum Essential Medium (EMEM, Life Technologies Corp., Carlsbad, Calif., USA) supplemented with L-glutamine, 10% heat-inactivated fetal bovine serum (FBS, Sigma-Aldrich) and penicillin/streptomycin (5 mL of a commercial mixture of 100 U/mL of penicillin+100 μg/mL streptomycin per 500 mL medium, Sigma-Aldrich) and maintained at 37° C. in a humidified 5% CO2 atmosphere and split 1:10 into fresh media every three-four days. Cells were harvested by trypsinization (trypsin-EDTA 0.25%, Sigma-Aldrich) and the number of live cells was quantified the trypan blue (1%, Sigma-Aldrich) exclusion assay and a Neubauer chamber. To determine the compatibility of the polymeric micelles (expressed as percentage with respect to a blank incubated with culture medium), cells were cultured in 96-well plates (5×10^3 cells/well) and allowed to attach over 72 h. The medium in each well was replaced by different samples (concentration between 0.1%, 0.3% and 0.5% in PBS+medium) and cells incubated over 4 and 24 h. […]

[2] = Encapsulation of efavirenz in polymeric micelles (apparent solubility, solubility factor); type: physicochemical; details: 37° C.
Procedure: The encapsulation capacity of the micelles was studied with the antiretroviral efavirenz. For this, 1%, 3%, 5% and 10% w/v CS-N52 and 1% CS-N74 polymeric micelles were prepared and 2-10 mg of drug per mL of micellar suspension added. The suspension was magnetically stirred at 37° C. (48 h), filtered (1.2 μm, Minisart® NML cellulose acetate, Sartorius AG, Goettingen, Germany) to remove insoluble drug, the filtrate diluted (1/10) in distilled water and 10 mL extracted with dichloromethane (3×20 mL). The organic solution was evaporated under vacuum, re-dissolved in methanol and the absorbance measured in microplate spectrophotometer (λ=248 nm). Then, the EFV concentration was calculated by interpolation in a calibration curve in the range of 0.02-80 μg/mL (R^2>0.9999). Finally, the solubility factor (fs) was determined according to
where Sa is the apparent solubility of active agent (herein: efavirenz) in the polymeric micelles and Si is the intrinsic solubility of the active agent (efavirenz) in a polymer-free medium (7 μg/mL), at 37° C. Measurements were performed in triplicate and the results are expressed as the mean±S.D. Efavirenz-loaded micelles before and after ionotropic crosslinking were characterized for Dh, PDI and Z-potential by DLS (see above).

Structure (SMILES) | viability of Caco2 cells (MTT) [1] | Si (intrinsic solubility in a polymer-free medium) [2] [µg/mL]
O=P(O)(O)OP(=O)(O)OP(=O)(O)O [TPP, sodium tripolyphosphate] | did not affect the viability of the cells | 
O=C1Nc2ccc(Cl)cc2[C@@](C#CC2CC2)(C(F)(F)F)O1 [efavirenz] |  | 7
